Counter-ions that a name gives are not always drawn. Like-named read-outs stand apart in the source and are kept apart here. Values belong to the compound of their own block, whether it stands above or below them.
Experiments:
[1] = Vapor sorption analysis (DVS), hygroscopicity; type: physicochemical
Solubility in water = type: physicochemical
mTOR = biological target: T1, mTOR (Homo sapiens, UniProt P42345); assay: mTOR cell-based mechanistic assay: inhibition of phosphorylation of 4E-BP1 (T37/46) in MDA-MB-231 cells; settings: 3 h treatment
T1 construct: endogenous in cells; host or cells: MDA-MB-231 cells
Experimental: MDA-MB-231 cells were plated in 96 well plates at 2×10^4 cells/well in 90 uL of Complete growth medium and incubated at 37° C. overnight in a CO2 incubator. […] Cell lysates' were transferred to a 96-well plate coated with 4E-BP1 antibodies to capture phospho-4E-BP1 (T37/46) and incubated overnight at 4° C. The amount of phospho-4E-BP1 in each well is further measured by incubating the wells with anti-rabbit phospho-4E-BP1 (T37/46) antibodies and a corresponding goat anti-rabbit IgG conjugated to HRP. The amount of HRP present in each well is measured by a chemiluminescence method, which corresponds to amount of phospho-4E-BP1 in each well. IC50 values were determined using a 6-point dose response curve.

[2] = Stability at 40° C. and 75% RH; type: physicochemical; settings: 30 days at 40° C. and 75% RH

Compound: trans-4-[4-amino-5-(7-methoxy-1H-indol-2-yl)imidazo[5,1-f][1,2,4]triazin-7-yl]cyclohexane carboxylic acid calcium salt [Example 2]
hygroscopicity, weight gain (DVS) ([1]; from 0 to 95% RH): 35%

solubility in water (Solubility in water; sodium salt): > 30 mg/mL
Compound: COc1cccc2cc(-c3nc([C@H]4CC[C@H](C(=O)O)CC4)n4ncnc(N)c34)[nH]c12 [Example 3, trans-4-[4-amino-5-(7-methoxy-1H-indol-2-yl)imidazo[5,1-f][1,2,4]triazin-7-yl]cyclohexanecarboxylic acid sodium salt]

IC50 (mTOR): ~1000 nM
Compound: COc1cccc2cc(-c3nc([C@H]4CC[C@H](C(=O)O)CC4)n4ncnc(N)c34)[nH]c12 [trans-4-[4-amino-5-(7-methoxy-1H-indol-2-yl)-imidazo[5,1-f][1,2,4]triazin-7-yl]cyclohexanecarboxylic acid]

solubility in water (Solubility in water): approximately 6 mg/mL | stability (degradation) [2]: no significant degradation | hygroscopicity (DVS) ([1]; at 90-95% RH): 2-4%
Compound: COc1cccc2cc(-c3nc([C@H]4CC[C@H](C(=O)O)CC4)n4ncnc(N)c34)[nH]c12 [Example 1, trans-4-[4-amino-5-(7-methoxy-1H-indol-2-yl)imidazo[5,1-f][1,2,4]triazin-7-yl]cyclohexane carboxylic acid tromethamine salt]
